Measured values as given in patent publication US4477458A, “Thiazolidine derivatives and their mucolytic compositions and methods” (Camillo Corvi S.p.A., priority 1981, dated 1984).
Counter-ions that a name gives are not always drawn.

Experiments:
[1] = test system: mucus production of rabbit; assay: Activity on mucus production of rabbit (method of R. Scuri and Coll.); type: in vivo; settings: for Mucoproduction at hours 0 - 4: mean ± E.S.
gastric mucin of the pig = assay: "in vitro" viscosity of gastric mucin of the pig (Contraves Rehomat microviscosimeter); settings: conc. 2 %; for Viscosity of gastric mucin: 0.1 ml; for Viscosity of gastric mucin, Var. %: vs Mucin + H2O
Experimental: The pharmacological activity was measured by studying the effect on the compound (CO/1177) on: (c) "in vitro" viscosity of gastric mucin of the pig by using, for the viscometer measures, a Contraves Rehomat microviscosimeter at 15 automatic scanning speeds.

[2] = test system: mucus of animals made bronchitic experimentally; assay: Fluidizing activity - viscosity of mucus of experimentally bronchitic animals (Contraves Rehomat microviscosimeter); type: in vivo, rabbit; settings: 20 mg/kg i.v.
Experimental: (§1) The pharmacological activity was measured by studying the effect on the compound (CO/1177) on:
(§2) (b) viscosity of mucus of sound animals (rabbits) and/or of animals made bronchitic experimentally by using, for the viscosimeter measures, a Contraves Rehomat microviscosimeter at 15 automatic scanning speeds;

[3] = test system: mucus of sound animals (rabbits); assay: Fluidizing activity - viscosity of mucus of sound animals (Contraves Rehomat microviscosimeter); type: in vivo, rabbit; settings: 20 mg/kg i.v.
Experimental: as §1, §2

Acute toxicity, rat = settings: in vivo
Experimental: (§3) The acute and subacute toxicity tests were performed by using Swiss mice and Wistar rats of both sexes.

Acute toxicity, mouse = settings: in vivo
Experimental: as §3

Acute toxicity, rabbit = settings: in vivo, iv
[4] = Oryctolagus cuniculus, iv, 10 mg/kg i.v., 0-4 h vs -4-0 h, read-out: Mucoproduction Var. %
[5] = Oryctolagus cuniculus, po, 400 mg/kg os, 0-4 h vs -4-0 h, read-out: Mucoproduction Var. %
[6] = Oryctolagus cuniculus, po, 600 mg/kg os, 0-4 h vs -4-0 h, read-out: Mucoproduction Var. %

CC(S)C(=O)NCC(=O)O (racemic) [Mercaptopropionylglycine]
Mucoproduction at hours 0 - 4 ([1]; 10 mg/kg i.v.): 32.121 ± 1.013 mg/h
Mucoproduction at hours 0 - 4 ([1]; 20 mg/kg i.v.): 36.630 ± 1.565 mg/h
Mucoproduction at hours 0 - 4 ([1]; 400 mg/kg os): 32.053 ± 1.292 mg/h
Mucoproduction at hours 0 - 4 ([1]; 600 mg/kg os): 34.432 ± 1.813 mg/h
change in vivo at 10 mg/kg [1, 4]: 33.8%
change in vivo at 20 mg/kg ([1]; Oryctolagus cuniculus, iv, 20 mg/kg i.v., 0-4 h vs -4-0 h, read-out: Mucoproduction Var. %): 43%
change in vivo at 400 mg/kg [1, 5]: 45%
change in vivo at 600 mg/kg [1, 6]: 49.9%

CN(Cc1cc(Br)cc(Br)c1N)C1CCCCC1 [Bromexine]
Mucoproduction at hours 0 - 4 ([1]; 400 mg/kg os): 27.414 ± 1.071 mg/h
Mucoproduction at hours 0 - 4 ([1]; 600 mg/kg os): 34.440 ± 1.446 mg/h
change in vivo at 400 mg/kg [1, 5]: 31.3%
change in vivo at 600 mg/kg [1, 6]: 40.6%

O=C(O)c1ccccc1C(=O)N1CCSC1 [CO/1177, 2-(1,3-thiazolidin-3-yl)-carbonyl-benzoic acid (Na salt)]
Viscosity of gastric mucin (gastric mucin of the pig; speed 17.4 g/min): 24.87 cps
Viscosity of gastric mucin (gastric mucin of the pig; speed 25 g/min): 22.39 cps
Viscosity of gastric mucin (gastric mucin of the pig; speed 33.6 g/min): 24.05 cps
Viscosity of gastric mucin (gastric mucin of the pig; speed 44.3 g/min): 22.92 cps
Viscosity of gastric mucin (gastric mucin of the pig; speed 56.1 g/min): 23.14 cps
Viscosity of gastric mucin (gastric mucin of the pig; speed 77.9 g/min): 20.91 cps
Viscosity of gastric mucin (gastric mucin of the pig; speed 113.2 g/min): 20.88 cps
Viscosity of gastric mucin (gastric mucin of the pig; speed 152 g/min): 18.81 cps
Viscosity of gastric mucin (gastric mucin of the pig; speed 200 g/min): 17.24 cps
Viscosity of gastric mucin (gastric mucin of the pig; speed 266.8 g/min): 15.48 cps
Viscosity of gastric mucin (gastric mucin of the pig; speed 352 g/min): 14.29 cps
Viscosity of gastric mucin, Var. % (gastric mucin of the pig; speed 17.4 g/min): -10.9%
Viscosity of gastric mucin, Var. % (gastric mucin of the pig; speed 25 g/min): -19.1%
Viscosity of gastric mucin, Var. % (gastric mucin of the pig; speed 33.6 g/min): -10.1%
Viscosity of gastric mucin, Var. % (gastric mucin of the pig; speed 44.3 g/min): -14.1%
Viscosity of gastric mucin, Var. % (gastric mucin of the pig; speed 56.1 g/min): -11%
Viscosity of gastric mucin, Var. % (gastric mucin of the pig; speed 77.9 g/min): -15.4%
Viscosity of gastric mucin, Var. % (gastric mucin of the pig; speed 113.2 g/min): -8.1%
Viscosity of gastric mucin, Var. % (gastric mucin of the pig; speed 152 g/min): -9.1%
Viscosity of gastric mucin, Var. % (gastric mucin of the pig; speed 200 g/min): -8.1%
Viscosity of gastric mucin, Var. % (gastric mucin of the pig; speed 266.8 g/min): -10%
Viscosity of gastric mucin, Var. % (gastric mucin of the pig; speed 352 g/min): -7.1%
Viscosity, time 0-24 ([2]; speed 17.4 g/min): 50.30 cps
Viscosity Var. % ([2]; speed 25 g/min): -58.4%
Viscosity, time 0-24 ([2]; speed 25 g/min): 41.5 cps
Viscosity Var. % ([2]; speed 33.6 g/min): -60%
Viscosity, time 0-24 ([2]; speed 33.6 g/min): 28.70 cps
Viscosity Var. % ([2]; speed 44.3 g/min): -56.6%
Viscosity, time 0-24 ([2]; speed 44.3 g/min): 22.4 cps
Viscosity Var. % ([2]; speed 56.1 g/min): -51.9%
Viscosity, time 0-24 ([2]; speed 56.1 g/min): 14.50 cps
Viscosity Var. % ([2]; speed 77.9 g/min): -60.9%
Viscosity, time 0-24 ([2]; speed 77.9 g/min): 10.7 cps
Viscosity Var. % ([2]; speed 113.2 g/min): -63.8%
Viscosity, time 0-24 ([2]; speed 113.2 g/min): 6.7 cps
Viscosity Var. % ([2]; speed 152 g/min): -68.1%
Viscosity, time 0-24 ([2]; speed 152 g/min): 5.2 cps
Viscosity Var. % ([2]; speed 200 g/min): -66.7%
Viscosity, time 0-24 ([2]; speed 200 g/min): 4.0 cps
Viscosity Var. % ([2]; speed 266.8 g/min): -71.8%
Viscosity, time 0-24 ([2]; speed 266.8 g/min): 2.4 cps
Viscosity Var. % ([2]; speed 352 g/min): -68.9%
Viscosity, time 0-24 ([2]; speed 352 g/min): 1.9 cps
Mucoproduction at hours 0 - 4 ([1]; 2.5 mg/kg i.v.): 52.760 ± 20.29 mg/h
Mucoproduction at hours 0 - 4 ([1]; 5 mg/kg i.v.): 37.650 ± 0.231 mg/h
Mucoproduction at hours 0 - 4 ([1]; 10 mg/kg i.v.): 49.250 ± 6.020 mg/h
Mucoproduction at hours 0 - 4 ([1]; 100 mg/kg os): 34.320 ± 5.850 mg/h
Mucoproduction at hours 0 - 4 ([1]; 200 mg/kg os): 86.250 ± 10.80 mg/h
Mucoproduction at hours 0 - 4 ([1]; 400 mg/kg os): 30.730 ± 7.630 mg/h
change in vivo at 2.5 mg/kg ([1]; Oryctolagus cuniculus, iv, 2.5 mg/kg i.v., 0-4 h vs -4-0 h, read-out: Mucoproduction Var. %): 32%
change in vivo at 5 mg/kg ([1]; Oryctolagus cuniculus, iv, 5 mg/kg i.v., 0-4 h vs -4-0 h, read-out: Mucoproduction Var. %): 34.6%
change in vivo at 10 mg/kg [1, 4]: 71%
change in vivo at 100 mg/kg ([1]; Oryctolagus cuniculus, po, 100 mg/kg os, 0-4 h vs -4-0 h, read-out: Mucoproduction Var. %): 16.3%
change in vivo at 200 mg/kg ([1]; Oryctolagus cuniculus, po, 200 mg/kg os, 0-4 h vs -4-0 h, read-out: Mucoproduction Var. %): 51.2%
change in vivo at 400 mg/kg [1, 5]: 97.6%
Viscosity Var. % ([3]; speed 17.4 g/min): -100%
Viscosity, time 0-24 ([3]; speed 17.4 g/min): 0 cps
Viscosity Var. % ([3]; speed 25 g/min): -81.7%
Viscosity, time 0-24 ([3]; speed 25 g/min): 0.88 cps
Viscosity Var. % ([3]; speed 33.6 g/min): -78.6%
Viscosity, time 0-24 ([3]; speed 33.6 g/min): 1.97 cps
Viscosity Var. % ([3]; speed 44.3 g/min): -71.5%
Viscosity, time 0-24 ([3]; speed 44.3 g/min): 2.00 cps
Viscosity Var. % ([3]; speed 56.1 g/min): -67.6%
Viscosity, time 0-24 ([3]; speed 56.1 g/min): 2.43 cps
Viscosity Var. % ([3]; speed 77.9 g/min): -53.6%
Viscosity, time 0-24 ([3]; speed 77.9 g/min): 2.55 cps
Viscosity Var. % ([3]; speed 113.2 g/min): -37.7%
Viscosity, time 0-24 ([3]; speed 113.2 g/min): 2.25 cps
Viscosity Var. % ([3]; speed 152 g/min): -36.3%
Viscosity, time 0-24 ([3]; speed 152 g/min): 2.18 cps
Viscosity Var. % ([3]; speed 200 g/min): -41.4%
Viscosity, time 0-24 ([3]; speed 200 g/min): 2.04 cps
Viscosity Var. % ([3]; speed 266.8 g/min): -39.2%
Viscosity, time 0-24 ([3]; speed 266.8 g/min): 1.94 cps
Viscosity Var. % ([3]; speed 352 g/min): -37.4%
Viscosity, time 0-24 ([3]; speed 352 g/min): 1.91 cps
LD50 (Acute toxicity, rat; iv): > 5000 mg/kg
LD50 (Acute toxicity, rat; po): > 5000 mg/kg
LD50 (Acute toxicity, mouse; iv): 3000 mg/kg
LD50 (Acute toxicity, mouse; po): > 5000 mg/kg
LD50 (Acute toxicity, rabbit): ~3500 mg/kg

CC1=CCC(CC2SCCN2C(=O)c2ccccc2C(=O)[O-])C1(C)C.[Na+] (stereo not drawn) [CO/1178, 2-[(2-{2',2',3'-trimethyl-cyclopenten-3'yl}-methyl)-1,3-thiazolidin-3-yl]-carbonyl-benzoic acid, Na salt]
Mucoproduction Var. % ([1]; 10 mg/kg i.v., 0-4 h vs -4-0 h): +19.9%
Mucoproduction at hours 0 - 4 ([1]; 10 mg/kg i.v.): 26.890 ± 6.210 mg/h
